The subject of series [1] is adult rats with preexisting elastase-induced emphysema. To be noted: cited from earlier work.
For series [2], the system named is mice exposed to cigarette smoke. To be noted: cited from earlier work.
Series [3] relates to adults with hereditary emphysema. As to conditions: cited from earlier work.
The next series deals with patients with COPD. To be noted: extrafine, 1.1 microns in diameter, HFA pMDI; cited from earlier work.
The nature of series [4]: Aerosol performance of dry powder inhaler formulation, next generation Impactor. It is filed as physicochemical. As to conditions: inhaler operated at 15 L/min. The procedure:
Inhaled corticosteroids (ICS) mometasone furoate or fluticasone furoate are prepared with volume median particle size of less than 5 microns. Calcitriol (1, 25-Dihydroxycholecalciferol) is also prepared in crystalline form and subsequently micronized to a volume median particle size of less than 5 microns. The ICS's are incorporated at appropriately 30-50% of the commercial ICS dose when administered via a passive dry powder inhaler, due to the efficiency of the invention delivered by a dry powder inhaler (DPI) available from MicroDose Therapeutx, Inc. One preferred embodiment utilizes an ICS dosed once daily, i.e. mometasone furoate or fluticasone furoate, to coincide with a once daily dose of the vitamin D receptor agonist. This combination product is designed to reverse corticoidsteroid resistance (CR) by adding the protective anti-inflammatory effects of calcitriol with the local anti-inflamatory effects of these ICS's. The inhaler is operated at 15 L/min and for both medicaments, the aerosol performance with a fine particle fraction (% of particles exiting the inhaler that are less than 5.8 microns) is […] with at least 10% of particles in the less than 2.1 micron size range when tested with a next generation Impactor.
Calcitriol is a synthetic vitamin D analog and has been used as a pharmaceutical as well as a nutraceutical. […]

The test system of series [5] is cell line cultured from patients with corticosteroid resistant asthma. As to conditions: after addition of vitamin D; promotion of regulatory T cells; cited from earlier work.
Another series deals with asthmatic adults. As to conditions: cited from earlier work.
A further series relates to Airway smooth muscle. To be noted: cited from earlier work.

The values that follow come from patent US20120077786A1, “METHODS AND COMPOSITIONS FOR DISEASE TREATMENT USING INHALATION” (priority 2010, published 2012).

With `CC1=C(/C=C/C(C)=C/C=C/C(C)=C/C(=O)O)C(C)(C)CCC1` [ATRA, All Trans Retinoic Acid], the alveolus formation result in series [1] is “induces alveolus formation”. For the same compound, the “formation of pulmonary emphysema” value in series [2] (mice exposed to cigarette smoke) is reported as “diminishes the formation of pulmonary emphysema”. In series [2] (mice with emphysema produced by cigarette smoke), the “distance between alveolar walls” value is given as “decreases the distance between alveolar walls”. Further, the trial outcome in series [3] was “not been successful”.
Turning to `CCC(=O)OCC(=O)[C@@]1(OC(=O)CC)[C@@H](C)C[C@H]2[C@@H]3CCC4=CC(=O)C=C[C@]4(C)[C@@]3(Cl)[C@@H](O)C[C@@]21C` [beclomethasone dipropionate], the air trapping entry in the series on patients with COPD was “significant reduction in air trapping”.
Take `C=C1/C(=C\C=C2/CCC[C@]3(C)[C@@H]([C@H](C)CCCC(C)(C)O)CC[C@@H]23)C[C@@H](O)C[C@@H]1O` [calcitriol, 1, 25-Dihydroxycholecalciferol]: the “particles in the less than 2.1 micron size range” value in series [4] is given as “at least 10%”.
In the case of vitamin D, the steroid sensitivity entry in series [5] is “increased steroid sensitivity”. Besides, the “mean increase in FEV1 for every 1 ng/mL increase in systemic vitamin D” value in the series on asthmatic adults is given as 22.7 mL. Moreover, in the series on Airway smooth muscle, the “airway smooth muscle proliferation” value was “slow”.
